Laboratory results from ChEMBL document CHEMBL1144768 (J Med Chem, 2008).

Tests used:
Carbonic anhydrase 2 [1] = molecular target: T1, Carbonic anhydrase 2 (Homo sapiens, UniProt P00918)
Description: Inhibition of human carbonic anhydrase 2 by 4-NPA hydrolysis assay

Carbonic anhydrase 2 [2] = molecular target: T1, Carbonic anhydrase 2; remark: listed apart in the source
Description: Binding affinity to human carbonic anhydrase 2 in presence of 10 mM PIPES without Na+ at pH 7.0 by ThermoFluor method

Carbonic anhydrase 2 [3] = molecular target: T1, Carbonic anhydrase 2; remark: listed apart in the source
Description: Binding affinity to human carbonic anhydrase 2 in presence of 10 mM HEPES and 100 uM Na2SO4 at pH 7.5 by ThermoFluor method

Carbonic anhydrase 2 [4] = molecular target: T1, Carbonic anhydrase 2; remark: listed apart in the source
Description: Binding affinity to human carbonic anhydrase 2 in presence of 10 mM PIPES and 100 uM Na2SO4 at pH 7.0 by ThermoFluor method

Carbonic anhydrase 2 [5] = molecular target: T1, Carbonic anhydrase 2; remark: listed apart in the source
Description: Binding affinity to human carbonic anhydrase 2 in presence of 10 mM HEPES without Na+ at pH 7.5 by ThermoFluor method

Carbonic anhydrase 2 [6] = molecular target: T1, Carbonic anhydrase 2; remark: listed apart in the source
Description: Binding affinity to human carbonic anhydrase 2 in presence of 10 mM PIPES and 200 uM NaCl at pH 7.0 by ThermoFluor method

[7] = Dissociation constant, pKa of the compound; type: physicochemical

| Ki (Carbonic anhydrase 2 [1]) | Kd (Carbonic anhydrase 2 [2]) | Kd (Carbonic anhydrase 2 [3]) | Kd (Carbonic anhydrase 2 [4]) | Kd (Carbonic anhydrase 2 [5]) | Kd (Carbonic anhydrase 2 [6]) | SMILES | pKa [7] |
| --- | --- | --- | --- | --- | --- | --- | --- |
| 300 µM | > 57 µM | > 57 µM | > 57 µM | > 57 µM | > 57 µM | CC1(C)O[C@H]2[C@@H]3OCO[C@@H]3CO[C@@]2(CNS(N)(=O)=O)O1 | – |
| – | – | – | – | – | – | CC1(C)O[C@@H]2[C@@H](CO[C@@]3(CNS(N)(=O)=O)OC(C)(C)O[C@@H]23)O1 | 10.7 |
| – | – | – | – | – | – | CC1(C)O[C@@H]2[C@@H](CO[C@@]3(COS(N)(=O)=O)OC(C)(C)O[C@@H]23)O1 [TOPIRAMATE] | 8.7 |
